Source: DBAASP
≈ marks a conversion by molar mass, not a printed value. Each block holds one molecule with its values, some of them ahead of it.

How the values were obtained:
Assay in all cases: ≥ marks a high value that may be exact or a test limit, other limits are often not marked, values filed in µg/mL are converted to µM
[1] = test system: Franconibacter helveticus DSM 18396
[2] = test system: Escherichia coli DH5alpha
[3] = test system: Kocuria rhizophila DSM 348
[4] = test system: Bacillus subtilis DSM 347
[5] = test system: Bacillus anthracis Sterne 34F2
[6] = test system: Bacillus subtilis var. niger ATCC 9372
Escherichia coli K91BK = test system: Escherichia coli K91BK
[7] = test system: Bacillus subtilis ATCC 9372
[8] = test system: Burkholderia thailandensis
[9] = test system: Klebsiella pneumoniae subsp. pneumoniae CGMCC 1.176
[10] = test system: Pseudomonas aeruginosa CGMCC 1.860
[11] = test system: Staphylococcus aureus AS1.72
[12] = test system: Enterococcus faecium CGMCC 1.2334
[13] = test system: Proteus mirabilis CICC 22931
Escherichia coli AS1.349 = test system: Escherichia coli AS1.349
[14] = test system: Enterobacter cloacae CGMCC 1.58
[15] = test system: Staphylococcus epidermidis CICC 23664
[16] = test system: Enterococcus faecalis CGMCC 1.595
Bacillus cereus AS1.126 = test system: Bacillus cereus AS1.126
[17] = test system: Enterococcus faecalis ATCC 29212
[18] = test system: Staphylococcus aureus ATCC 29213
[19] = test system: Salmonella enterica subsp. enterica serovar Pullorum C79-13
[20] = test system: Escherichia coli ATCC 25922
[21] = test system: Salmonella enterica subsp. enterica serovar Typhimurium ATCC 14028
[22] = test system: Bacillus subtilis CMCC 63501
Escherichia coli UB1005 = test system: Escherichia coli UB1005
[23] = test system: Staphylococcus epidermidis ATCC 12228
[24] = test system: Klebsiella aerogenes CGMCC 1.876
[25] = test system: Lactococcus lactis AS1.1690
[26] = test system: Acinetobacter baumannii CICC 22934

SMILES: CC[C@H](C)[C@H](NC(=O)CN)C(=O)NCC(=O)N[C@@H](CCCCN)C(=O)N[C@@H](Cc1ccccc1)C(=O)N[C@@H](CC(C)C)C(=O)N[C@@H](Cc1cnc[nH]1)C(=O)N[C@@H](CO)C(=O)N[C@@H](C)C(=O)N[C@@H](CCCCN)C(=O)N[C@@H](CCCCN)C(=O)N[C@@H](C)C(=O)NCC(=O)N[C@@H](CCCCN)C(=O)N[C@@H](C)C(=O)N[C@@H](Cc1ccccc1)C(=O)N[C@H](C(=O)NCC(=O)N[C@@H](CCC(=O)O)C(=O)N[C@H](C(=O)N[C@@H](CCSC)C(=O)N[C@@H](CC(N)=O)C(=O)N[C@@H](CO)C(=O)O)[C@@H](C)CC)C(C)C [GIGKFLHSAKKAGKAFVGEIMNS]
MIC [1]: ≥ 64 µM | MIC [2]: ≥ 64 µM | MIC [3]: ≥ 64 µM | MIC [4]: 8 µM (≈ 19.1 µg/mL)

SMILES: CC(=O)NCC(=O)N[C@@H](Cc1c[nH]c2ccccc12)C(=O)NCC(=O)N[C@@H](CO)C(=O)N[C@@H](Cc1ccccc1)C(=O)N[C@@H](Cc1ccccc1)C(=O)N[C@@H](CCCCN)C(=O)N[C@@H](CCCCN)C(=O)N[C@@H](C)C(=O)N[C@@H](C)C(=O)N[C@@H](Cc1cnc[nH]1)C(=O)N[C@H](C(=O)NCC(=O)N[C@@H](CCCCN)C(=O)N[C@@H](Cc1cnc[nH]1)C(=O)N[C@H](C(=O)NCC(=O)N[C@@H](CCCCN)C(=O)N[C@@H](C)C(=O)N[C@@H](C)C(=O)N[C@@H](CC(C)C)C(=O)N[C@H](C(=O)N[C@@H](Cc1cnc[nH]1)C(=O)N[C@@H](Cc1ccc(O)cc1)C(=O)N[C@@H](CC(C)C)C(N)=O)[C@@H](C)O)C(C)C)C(C)C [GWGSFFKKAAHVGKHVGKAALTHYL]
MIC [5]: ≥ 79.4 µM | MIC [6]: 17.7 µM (≈ 48.7 µg/mL) | MIC (Escherichia coli K91BK): ≥ 100 µM

SMILES: CC[C@H](C)[C@H](NC(=O)[C@H](CCCN=C(N)N)NC(=O)[C@H](CC(C)C)NC(=O)[C@H](CCC(N)=O)NC(=O)[C@H](CCCCN)NC(=O)[C@H](CC(C)C)NC(=O)[C@H](CC(C)C)NC(=O)[C@H](CC(C)C)NC(=O)[C@@H](NC(=O)[C@H](CCCCN)NC(=O)[C@H](CC(=O)O)NC(=O)[C@H](C)NC(=O)[C@@H](NC(=O)[C@H](CCCCN)NC(=O)[C@H](CCCCN)NC(=O)[C@H](CC(=O)O)NC(=O)[C@@H](NC(=O)[C@H](Cc1cnc[nH]1)NC(C)=O)C(C)C)C(C)C)C(C)C)C(=O)N[C@@H](CCSC)C(=O)N[C@@H](CCCN=C(N)N)C(=O)N[C@@H](CC(C)C)C(=O)N[C@@H](CC(C)C)C(=O)N[C@H](C(=O)N[C@@H](CCCN=C(N)N)C(=O)N[C@@H](CC(C)C)C(N)=O)[C@@H](C)O [HVDKKVADKVLLLKQLRIMRLLTRL]
MIC [5]: ≥ 35 µM | MIC [7]: 16 µM (≈ 48.7 µg/mL) | MIC [8]: ≥ 50 µM

SMILES: CC[C@H](C)[C@H](NC(=O)CNC(=O)[C@H](CCCCN)NC(=O)[C@H](CCCN=C(N)N)NC(=O)[C@@H](NC(=O)[C@@H](NC(=O)[C@H](CCCN=C(N)N)NC(=O)[C@H](CCCN=C(N)N)NC(=O)[C@H](CC(C)C)NC(=O)[C@H](CC(N)=O)NC(=O)[C@H](CCCCN)NC(C)=O)[C@@H](C)CC)[C@@H](C)CC)C(=O)N[C@@H](Cc1cnc[nH]1)C(=O)N[C@H](C(=O)N[C@H](C(=O)N[C@@H](CCCCN)C(=O)N[C@@H](CCCCN)C(=O)N[C@@H](Cc1ccc(O)cc1)C(=O)NCC(N)=O)[C@@H](C)CC)[C@@H](C)CC [KNLRRIIRKGIHIIKKYG]
MIC [5]: ≥ 100 µM | MIC [8]: ≥ 100 µM | MIC [6]: 12.5 µM (≈ 28.1 µg/mL) | MIC (Escherichia coli K91BK): ≥ 100 µM

Second part, the molecule after the results:

MIC [1]: 8 µM (≈ 19.8 µg/mL) | MIC [2]: 16 µM (≈ 39.7 µg/mL) | MIC [3]: 8 µM (≈ 19.8 µg/mL) | MIC [4]: 1 µM (≈ 2.48 µg/mL)
SMILES: CC[C@H](C)[C@H](NC(=O)CN)C(=O)NCC(=O)N[C@@H](CCCCN)C(=O)N[C@@H](Cc1ccccc1)C(=O)N[C@@H](CC(C)C)C(=O)N[C@@H](Cc1cnc[nH]1)C(=O)N[C@@H](CO)C(=O)N[C@@H](C)C(=O)N[C@@H](CCCCN)C(=O)N[C@@H](CCCCN)C(=O)N[C@@H](Cc1ccccc1)C(=O)NCC(=O)N[C@@H](CCCCN)C(=O)N[C@@H](C)C(=O)N[C@@H](Cc1ccccc1)C(=O)N[C@H](C(=O)N[C@@H](C)C(=O)N[C@@H](CCC(=O)O)C(=O)N[C@H](C(=O)N[C@@H](CCSC)C(=O)N[C@@H](CC(N)=O)C(=O)N[C@@H](CO)C(=O)O)[C@@H](C)CC)C(C)C [GIGKFLHSAKKFGKAFVAEIMNS]

MIC [9]: ≥ 100 µM | MIC [10]: 15.6 µM (≈ 26.5 µg/mL) | MIC [11]: 2.5 µM (≈ 4.25 µg/mL) | MIC [12]: 5 µM (≈ 8.5 µg/mL) | MIC [13]: ≥ 100 µM | MIC (Escherichia coli AS1.349): 2.5 µM (≈ 4.25 µg/mL) | MIC [14]: ≥ 100 µM | MIC [15]: 2.5 µM (≈ 4.25 µg/mL) | MIC [16]: 2.5 µM (≈ 4.25 µg/mL) | MIC (Bacillus cereus AS1.126): 18.8 µM (≈ 31.9 µg/mL)
SMILES: CC[C@H](C)[C@H](N)C(=O)N[C@@H](CCCCN)C(=O)N[C@@H](CCCCN)C(=O)N[C@H](C(=O)N[C@@H](Cc1c[nH]c2ccccc12)C(=O)N[C@@H](CO)C(=O)N[C@@H](CCCCN)C(=O)N[C@H](C(=O)N[C@@H](CCCCN)C(=O)N[C@@H](CCCCN)C(=O)N[C@@H](Cc1c[nH]c2ccccc12)C(=O)N[C@@H](CC(C)C)C(=O)N[C@@H](CCCCN)C(=O)O)[C@@H](C)CC)[C@@H](C)CC [IKKIWSKIKKWLK]

MIC [17]: 4 µM (≈ 10.5 µg/mL) | MIC [18]: 4 µM (≈ 10.5 µg/mL) | MIC [19]: 8 µM (≈ 21 µg/mL) | MIC [20]: 2 µM (≈ 5.26 µg/mL) | MIC [21]: 4 µM (≈ 10.5 µg/mL) | MIC [22]: 8 µM (≈ 21 µg/mL) | MIC (Escherichia coli UB1005): 2 µM (≈ 5.26 µg/mL) | MIC [23]: 4 µM (≈ 10.5 µg/mL)
SMILES: CC[C@H](C)[C@H](NC(=O)[C@H](C)NC(=O)[C@H](CC(C)C)NC(=O)[C@@H]1CCCN1C(=O)[C@@H](NC(=O)[C@H](CC(C)C)NC(=O)[C@H](CCC(N)=O)NC(=O)[C@H](Cc1c[nH]c2ccccc12)NC(=O)[C@H](Cc1ccccc1)NC(=O)[C@H](CCCN=C(N)N)NC(=O)[C@@H](N)CCCCN)C(C)C)C(=O)N[C@@H](CCCCN)C(=O)N[C@H](C(=O)N[C@@H](Cc1ccc(O)cc1)C(=O)N[C@@H](CCCN=C(N)N)C(=O)N[C@@H](C)C(=O)N[C@@H](Cc1c[nH]c2ccccc12)C(=O)N[C@@H](CCCCN)C(=O)N[C@@H](CCCN=C(N)N)C(=O)N[C@@H](CCCN=C(N)N)C(=O)O)[C@@H](C)CC [KRFWQLVPLAIKIYRAWKRR]

MIC [9]: ≥ 100 µM | MIC [10]: 1.59 µM (≈ 4.07 µg/mL) | MIC [11]: 3.86 µM (≈ 9.87 µg/mL) | MIC [24]: ≥ 100 µM | MIC [25]: 1.98 µM (≈ 5.06 µg/mL) | MIC [12]: 2.9 µM (≈ 7.42 µg/mL) | MIC (Escherichia coli AS1.349): 6.25 µM (≈ 16 µg/mL) | MIC [26]: 7.81 µM (≈ 20 µg/mL) | MIC [14]: ≥ 100 µM | MIC [15]: 7 µM (≈ 17.9 µg/mL) | MIC [16]: 1.81 µM (≈ 4.63 µg/mL) | MIC (Bacillus cereus AS1.126): 3.91 µM (≈ 10 µg/mL)
SMILES: CC(C)[C@H](NC(=O)[C@H](CCCCN)NC(=O)[C@@H](N)CO)C(=O)N[C@@H](Cc1c[nH]c2ccccc12)C(=O)N[C@@H](CCCN=C(N)N)C(=O)N[C@@H](Cc1cnc[nH]1)C(=O)N[C@@H](Cc1c[nH]c2ccccc12)C(=O)N[C@@H](CCCN=C(N)N)C(=O)N[C@@H](CCCN=C(N)N)C(=O)N[C@@H](Cc1ccccc1)C(=O)N[C@@H](Cc1c[nH]c2ccccc12)C(=O)N[C@@H](Cc1cnc[nH]1)C(=O)N[C@@H](CCCN=C(N)N)C(=O)N[C@@H](C)C(=O)N[C@@H](Cc1cnc[nH]1)C(=O)N[C@@H](CCCN=C(N)N)C(=O)N[C@@H](CCCCN)C(=O)N[C@@H](CCCCN)C(=O)O [SKVWRHWRRFWHRAHRKK]
